# Tested on: 188146-221-R-J1-PDC complex spheroid viability
# Test: Anticancer human tumor 188146-221-R-J1-PDC patient-derived colon adenocarcinoma cell line growth inhibition [POLQ]
# Settings: for IC50: curve of first compound; for viability, T/C: stronger effect = lower value
# Summary of the method: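 Three-cell-type spheroids modelling solid tumor plus stroma served as the readout system; POL inhibitors were tested individually and in combination, concentration ranges set by clinical Cmax where known.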
# [1] = second compound 0.0316 µM, first compound 0.0316 µM
# [2] = second compound 0.0316 µM, first compound 0.1 µM
# [3] = second compound 0.0316 µM, first compound 0.316 µM
# [4] = second compound 0.0316 µM, first compound 1 µM
# [5] = second compound 0.0316 µM, first compound 3.16 µM
# [6] = second compound 0.0316 µM, first compound 10 µM
# [7] = second compound 0.1 µM, first compound 0.0316 µM
# [8] = second compound 0.1 µM, first compound 0.1 µM
# [9] = second compound 0.1 µM, first compound 0.316 µM
# [10] = second compound 0.1 µM, first compound 1 µM
# [11] = second compound 0.1 µM, first compound 3.16 µM
# [12] = second compound 0.1 µM, first compound 10 µM
# [13] = second compound 0.316 µM, first compound 0.0316 µM
# [14] = second compound 0.316 µM, first compound 0.1 µM
# [15] = second compound 0.316 µM, first compound 0.316 µM
# [16] = second compound 0.316 µM, first compound 1 µM
# [17] = second compound 0.316 µM, first compound 3.16 µM
# [18] = second compound 0.316 µM, first compound 10 µM
# [19] = second compound 1 µM, first compound 0.0316 µM
# [20] = second compound 1 µM, first compound 0.1 µM
# [21] = second compound 1 µM, first compound 0.316 µM
# [22] = second compound 1 µM, first compound 1 µM
# [23] = second compound 1 µM, first compound 3.16 µM
# [24] = second compound 1 µM, first compound 10 µM
# [25] = second compound 3.16 µM, first compound 0.0316 µM
# [26] = second compound 3.16 µM, first compound 0.1 µM
# [27] = second compound 3.16 µM, first compound 0.316 µM
# [28] = second compound 3.16 µM, first compound 1 µM
# [29] = second compound 3.16 µM, first compound 3.16 µM
# [30] = second compound 3.16 µM, first compound 10 µM
# [31] = second compound 10 µM, first compound 0.0316 µM
# [32] = second compound 10 µM, first compound 0.1 µM
# [33] = second compound 10 µM, first compound 0.316 µM
# [34] = second compound 10 µM, first compound 1 µM
# [35] = second compound 10 µM, first compound 3.16 µM
# [36] = second compound 10 µM, first compound 10 µM
# 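Further: spheroids exposed to compounds for seven days.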
# 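Wherever viability, T/C is given: 100% = DMSO vehicle control viability.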
compound,measurement,setting,value
CC1COCCN1c1cc(C2(O)CC3CCC(C2)O3)c2cnn(-c3ccn[nH]3)c2n1 (stereo unspecified) + COC1C(OC(N)=O)C(O)C(Oc2ccc3c(O)c(NC(=O)c4ccc(O)c(CC=C(C)C)c4)c(=O)oc3c2C)OC1(C)C,IC50,second compound 0.0316 µM,0.295 µM
same,IC50,second compound 0.1 µM,0.428 µM
same,IC50,second compound 0.316 µM,0.425 µM
same,IC50,second compound 1 µM,0.425 µM
same,IC50,second compound 3.16 µM,0.299 µM
same,IC50,second compound 10 µM,0.195 µM
same,"viability, T/C",[1],93.4%
same,"viability, T/C",[2],68.8%
same,"viability, T/C",[3],53.1%
same,"viability, T/C",[4],25.5%
same,"viability, T/C",[5],18%
same,"viability, T/C",[6],9.03%
same,"viability, T/C",[7],94.5%
same,"viability, T/C",[8],78.5%
same,"viability, T/C",[9],56.9%
same,"viability, T/C",[10],30.9%
same,"viability, T/C",[11],21.2%
same,"viability, T/C",[12],8.19%
same,"viability, T/C",[13],94.7%
same,"viability, T/C",[14],74.1%
same,"viability, T/C",[15],57%
same,"viability, T/C",[16],35.4%
same,"viability, T/C",[17],17%
same,"viability, T/C",[18],9.09%
same,"viability, T/C",[19],93.8%
same,"viability, T/C",[20],79.3%
same,"viability, T/C",[21],57.2%
same,"viability, T/C",[22],30.6%
same,"viability, T/C",[23],17.5%
same,"viability, T/C",[24],9.21%
same,"viability, T/C",[25],82.1%
same,"viability, T/C",[26],67.2%
same,"viability, T/C",[27],51.3%
same,"viability, T/C",[28],26.3%
same,"viability, T/C",[29],14.9%
same,"viability, T/C",[30],8.05%
same,"viability, T/C",[31],90.5%
same,"viability, T/C",[32],62.4%
same,"viability, T/C",[33],41.8%
same,"viability, T/C",[34],22.8%
same,"viability, T/C",[35],19%
same,"viability, T/C",[36],7.81%
CCc1cc2c(N3CCc4c(cc(Cn5ccnc5)cc4-c4cn(C)nc4C(F)(F)F)C3=O)cc(C)nc2c(OC)n1 + COC1C(OC(N)=O)C(O)C(Oc2ccc3c(O)c(NC(=O)c4ccc(O)c(CC=C(C)C)c4)c(=O)oc3c2C)OC1(C)C,IC50,second compound 0.0316 µM,7.26 µM
same,IC50,second compound 0.1 µM,> 10 µM
same,IC50,second compound 0.316 µM,9.01 µM
same,IC50,second compound 1 µM,> 10 µM
same,IC50,second compound 3.16 µM,> 10 µM
same,IC50,second compound 10 µM,6.16 µM
same,"viability, T/C",[1],112%
same,"viability, T/C",[2],102%
same,"viability, T/C",[3],92.1%
same,"viability, T/C",[4],88.1%
same,"viability, T/C",[5],66.3%
same,"viability, T/C",[6],42.8%
same,"viability, T/C",[7],108%
same,"viability, T/C",[8],101%
same,"viability, T/C",[9],97.7%
same,"viability, T/C",[10],85.4%
same,"viability, T/C",[11],66.4%
same,"viability, T/C",[12],55.9%
same,"viability, T/C",[13],106%
same,"viability, T/C",[14],108%
same,"viability, T/C",[15],105%
same,"viability, T/C",[16],83.3%
same,"viability, T/C",[17],62.4%
same,"viability, T/C",[18],48.2%
same,"viability, T/C",[19],108%
same,"viability, T/C",[20],108%
same,"viability, T/C",[21],101%
same,"viability, T/C",[22],83.2%
same,"viability, T/C",[23],64.2%
same,"viability, T/C",[24],53.2%
same,"viability, T/C",[25],104%
same,"viability, T/C",[26],114%
same,"viability, T/C",[27],103%
same,"viability, T/C",[28],89.2%
same,"viability, T/C",[29],73.9%
same,"viability, T/C",[30],51.1%
same,"viability, T/C",[31],97.5%
same,"viability, T/C",[32],98%
same,"viability, T/C",[33],101%
same,"viability, T/C",[34],78.5%
same,"viability, T/C",[35],60.2%
same,"viability, T/C",[36],43.2%
CCc1cc2c(N3CCc4c(cc(Cn5ccnc5)cc4-c4cn(C)nc4C(F)(F)F)C3=O)ccnc2c(OC)n1 + COC1C(OC(N)=O)C(O)C(Oc2ccc3c(O)c(NC(=O)c4ccc(O)c(CC=C(C)C)c4)c(=O)oc3c2C)OC1(C)C,IC50,second compound 0.0316 µM,8.38 µM
same,IC50,second compound 0.1 µM,> 10 µM
same,IC50,second compound 0.316 µM,9.83 µM
same,IC50,second compound 1 µM,6.45 µM
same,IC50,second compound 3.16 µM,> 10 µM
same,IC50,second compound 10 µM,> 10 µM
same,"viability, T/C",[1],107%
same,"viability, T/C",[2],93.5%
same,"viability, T/C",[3],99.2%
same,"viability, T/C",[4],96.2%
same,"viability, T/C",[5],67.6%
same,"viability, T/C",[6],46.8%
same,"viability, T/C",[7],117%
same,"viability, T/C",[8],108%
same,"viability, T/C",[9],107%
same,"viability, T/C",[10],99.7%
same,"viability, T/C",[11],66.3%
same,"viability, T/C",[12],62.6%
same,"viability, T/C",[13],103%
same,"viability, T/C",[14],108%
same,"viability, T/C",[15],98.1%
same,"viability, T/C",[16],93.7%
same,"viability, T/C",[17],68.7%
same,"viability, T/C",[18],49.9%
same,"viability, T/C",[19],103%
same,"viability, T/C",[20],97.2%
same,"viability, T/C",[21],104%
same,"viability, T/C",[22],104%
same,"viability, T/C",[23],58.5%
same,"viability, T/C",[24],44.7%
same,"viability, T/C",[25],105%
same,"viability, T/C",[26],111%
same,"viability, T/C",[27],102%
same,"viability, T/C",[28],83%
same,"viability, T/C",[29],82.8%
same,"viability, T/C",[30],55.3%
same,"viability, T/C",[31],108%
same,"viability, T/C",[32],95.6%
same,"viability, T/C",[33],108%
same,"viability, T/C",[34],85.5%
same,"viability, T/C",[35],67.8%
same,"viability, T/C",[36],59%
